Values quoted from earlier work as cited in PMC4310643 (ACS Nano, 2015).

Test system: ABIR

- binding affinity to ABIR: high binding affinity to ABIR
Substance: Arg-Gly-Asp-DPhe-Lys (head to tail) [cRGDfK, cyclic peptide, arginine-glycine-aspartic acid-(D)phenylalanine-lysine]
